Results on 22 compounds are retold here after publication PMC6429262, “Design and Synthesis of Novel Anti-Proliferative Emodin Derivatives and Studies on their Cell Cycle Arrest, Apoptosis Pathway and Migration” (Molecules, 2019).

The subject of experiment [1] is MCF-7 cells. Kind of experiment: CellTiter-Glo Luminescent Cell Viability Assay, MCF-7. The experiment is classed as cell-based, human. The following applies: MCF-7 cells, 48 h, mean of three independent experiments. Here is the method:
(§1) The in vitro anti-proliferative activities of all the novel synthesized compounds were evaluated against HepG2 cells and MCF-7 cells by CellTiter-Glo® Luminescent Cell Viability Assay, using paclitaxel (a clinically used drug) as a positive control. Emodin (1) and compound 2 were also included for comparison.
(§2) HepG2 cells and MCF-7 cells were purchased from American Type Culture Collection (ATCC, Manassas, VA, USA). Cells were cultured in T75 flask (430641, Corning, New York, NY, USA), supplemented with high-glucose DMEM medium (Dulbecco’s modified Eagle’s medium, 11965-092, Gibco, New York, NY, USA) containing 10% Fetal bovine serum (FBS) and 1% penicillin (100 units/mL)-streptomycin (100 µg/mL) in a humidified incubator at 37 °C under 5% CO2 and 95% relative humidity (RH) atmosphere. The cells were harvested for metabolomics experiments using cell scrapers.
(§3) HepG2 cells and MCF-7 cells in 40 µL DMEM supplemented with 10% FBS were seeded at a density of 500 cells/well in 384-well cell culture plate (3570, Corning), respectively. After 24 h, the medium was substituted with fresh medium containing various sample solutions in DMSO (0.5%, v/v) at a dose range of 0.14–100 µM with 3-fold serial dilutions, and cells were cultured for another 48 h. Cells were cultured in medium without samples but 0.5% DMSO served as a control. All measurements were determined in triplicate for each treatment. After the sample treatment for 48 h, 20 µL CellTiter-Glo (G7573, Promega, Fitchburg, WI, USA) was added to each well containing cells and the contents were mixed for 2 min on an orbital shaker to induce cell lysis. The plates were then incubated at room temperature for 20 min to stabilize the luminescent signal. The luminescence was recorded on an Envision 2014 (Perkin Elmer, Waltham, MA, UAS). The IC50 values represented the samples’ concentrations required to inhibit 50% of cell proliferation and were calculated from a calibration curve by linear regression using GraphPad Prism 7.0 software (GraphPad Software, San Diego, CA, USA).
In general terms: Cellular ATP, detected with luciferase, serves as a proxy for viable cell number.

Experiment [2] relates to HepG2 cells. Kind of experiment: CellTiter-Glo Luminescent Cell Viability Assay, HepG2. The experiment is classed as cell-based, human. The following applies: HepG2 cells, 48 h, mean of three independent experiments. The procedure:
as §1, §2, §3

By IC50 is commonly meant the concentration that gives 50% inhibition. The low end stands for higher potency, the high end for lower potency. `Cc1cc(O)c2c(c1)C(=O)c1cc(OCCO)cc(O)c1C2=O` [Compound 2, 1,8-Dihydroxy-3-(2-hydroxyethoxy)-6-methylanthracene-9,10-dione]: the IC50 was 86.4 ± 3.98 µM in experiment [1] (Homo sapiens, MCF7, 48 h) and 64.1 ± 2.37 µM in experiment [2] (Homo sapiens, HepG2, 48 h).

For the compound `Cc1cc(O)c2c(c1)C(=O)c1cc(OCCOC(=O)CN)cc(O)c1C2=O` [Compound 3a, 2-(2-(4,5-Dihydroxy-7-methyl-9,10-dioxo-9,10-dihydroanthracen-2-yloxy)ethoxy)-2-oxoethanaminium 2,2,2-trifluoroacetate], the IC50 in experiment [1] (Homo sapiens, MCF7, 48 h) worked out at 66.9 ± 1.65 µM; in experiment [2] (Homo sapiens, HepG2, 48 h), 22.7 ± 0.78 µM.

For the compound `Cc1cc(O)c2c(c1)C(=O)c1cc(OCCOC(=O)[C@@H](N)CO)cc(O)c1C2=O` [Compound 3d, (S)-1-(2-(4,5-Dihydroxy-7-methyl-9,10-dioxo-9,10-dihydroanthracen-2-yloxy)ethoxy)-3-hydroxy-1-oxopropan-2-aminium 2,2,2-trifluoroacetate], the IC50 in experiment [1] (Homo sapiens, MCF7, 48 h) came out at 34 ± 1.98 µM; in experiment [2] (Homo sapiens, HepG2, 48 h) it was 12 ± 1.19 µM.

Take `Cc1cc(O)c2c(c1)C(=O)c1cc(OCCOC(=O)[C@H](N)C(C)C)cc(O)c1C2=O` [Compound 3e, (R)-1-(2-(4,5-Dihydroxy-7-methyl-9,10-dioxo-9,10-dihydroanthracen-2-yloxy)ethoxy)-3-methyl-1-oxobutan-2-aminium 2,2,2-trifluoroacetate]: the IC50 in experiment [1] (Homo sapiens, MCF7, 48 h) worked out at 14.2 ± 0.23 µM; in experiment [2] (Homo sapiens, HepG2, 48 h), 14.4 ± 1.09 µM.

Turning to `Cc1cc(O)c2c(c1)C(=O)c1cc(OCCOC(=O)[C@@H](N)C(C)C)cc(O)c1C2=O` [Compound 3f, (S)-1-(2-(4,5-Dihydroxy-7-methyl-9,10-dioxo-9,10-dihydroanthracen-2-yloxy)ethoxy)-3-methyl-1-oxobutan-2-aminium 2,2,2-trifluoroacetate], the IC50 in experiment [1] (Homo sapiens, MCF7, 48 h) stood at 16 ± 0.51 µM; in experiment [2] (Homo sapiens, HepG2, 48 h), 12.4 ± 0.35 µM.

As for `Cc1cc(O)c2c(c1)C(=O)c1cc(OCCOC(=O)[C@@H](N)CC(C)C)cc(O)c1C2=O` [Compound 3g, (S)-1-(2-(4,5-Dihydroxy-7-methyl-9,10-dioxo-9,10-dihydroanthracen-2-yloxy)ethoxy)-4-methyl-1-oxopentan-2-aminium 2,2,2-trifluoroacetate], the IC50 was found to be 16.1 ± 0.23 µM in experiment [1] (Homo sapiens, MCF7, 48 h) and 15.9 ± 0.33 µM in experiment [2] (Homo sapiens, HepG2, 48 h).

For the compound `CCC(C)[C@H](N)C(=O)OCCOc1cc(O)c2c(c1)C(=O)c1cc(C)cc(O)c1C2=O` (stereo partly drawn) [Compound 3h, (2S)-1-(2-(4,5-dihydroxy-7-methyl-9,10-dioxo-9,10-dihydroanthracen-2-yloxy)ethoxy)-3-methyl-1-oxo-pentan-2-aminium 2,2,2-trifluoroacetate], the IC50 was determined as 12.8 ± 1.05 µM in experiment [1] (Homo sapiens, MCF7, 48 h) and 14.4 ± 0.27 µM in experiment [2] (Homo sapiens, HepG2, 48 h).

With `CSCC[C@H](N)C(=O)OCCOc1cc(O)c2c(c1)C(=O)c1cc(C)cc(O)c1C2=O` [Compound 3i, (S)-1-(2-(4,5-Dihydroxy-7-methyl-9,10-dioxo-9,10-dihydroanthracen-2-yloxy)ethoxy)-4-(methylthio)-1-oxobutan-2-aminium 2,2,2-trifluoroacetate], the IC50 in experiment [1] (Homo sapiens, MCF7, 48 h) was found to be 17.2 ± 0.41 µM; in experiment [2] (Homo sapiens, HepG2, 48 h), 17.2 ± 0.2 µM.

As to `Cc1cc(O)c2c(c1)C(=O)c1cc(OCCOC(=O)C(C)(C)N)cc(O)c1C2=O` [Compound 3j, 1-(2-(4,5-Dihydroxy-7-methyl-9,10-dioxo-9,10-dihydroanthracen-2-yloxy)ethoxy)-2-methyl-1-oxopropan-2-aminium 2,2,2-trifluoroacetate], the IC50 stood at 29.8 ± 1.78 µM in experiment [1] (Homo sapiens, MCF7, 48 h) and 25.8 ± 5.28 µM in experiment [2] (Homo sapiens, HepG2, 48 h).

Turning to `Cc1cc(O)c2c(c1)C(=O)c1cc(OCCOC(=O)C3(N)CC3)cc(O)c1C2=O` [Compound 3k, 1-((2-(4,5-Dihydroxy-7-methyl-9,10-dioxo-9,10-dihydroanthracen-2-yloxy)ethoxy)carbonyl)cyclopropan-aminium 2,2,2-trifluoroacetate], the IC50 was greater than 100 µM in experiment [1] (Homo sapiens, MCF7, 48 h) and 53.2 ± 8.7 µM in experiment [2] (Homo sapiens, HepG2, 48 h).

Turning to `Cc1cc(O)c2c(c1)C(=O)c1cc(OCCOC(=O)C3(N)CCC3)cc(O)c1C2=O` [Compound 3l, 1-((2-(4,5-Dihydroxy-7-methyl-9,10-dioxo-9,10-dihydroanthracen-2-yloxy)ethoxy)carbonyl)cyclobutan-aminium 2,2,2-trifluoroacetate], the IC50 is greater than 100 µM in experiment [1] (Homo sapiens, MCF7, 48 h) and 67.49 ± 0.56 µM in experiment [2] (Homo sapiens, HepG2, 48 h).

With `Cc1cc(O)c2c(c1)C(=O)c1cc(OCCOC(=O)C3(N)COC3)cc(O)c1C2=O` [Compound 3m, 3-((2-(4,5-Dihydroxy-7-methyl-9,10-dioxo-9,10-dihydroanthracen-2-yloxy)ethoxy)carbonyl)oxetan-3-aminium 2,2,2-trifluoroacetate], the IC50 is greater than 100 µM in experiment [1] (Homo sapiens, MCF7, 48 h) and greater than 100 µM in experiment [2] (Homo sapiens, HepG2, 48 h).

`Cc1cc(O)c2c(c1)C(=O)c1cc(OCCOC(=O)C3(N)CCCC3)cc(O)c1C2=O` [Compound 3n, 1-((2-(4,5-Dihydroxy-7-methyl-9,10-dioxo-9,10-dihydroanthracen-2-yloxy)ethoxy)carbonyl)cyclopentan-aminium 2,2,2-trifluoroacetate]: the IC50 in experiment [1] (Homo sapiens, MCF7, 48 h) was determined as 23.5 ± 1.93 µM; in experiment [1] it was 18.5 ± 1.93 µM; in experiment [2], 17.5 ± 0.59 µM; in experiment [2] (Homo sapiens, HepG2, 48 h), 12.5 ± 0.59 µM.

With `Cc1cc(O)c2c(c1)C(=O)c1cc(OCCOC(=O)[C@H]3CCCN3)cc(O)c1C2=O` [Compound 3o, (R)-2-((2-(4,5-Dihydroxy-7-methyl-9,10-dioxo-9,10-dihydroanthracen-2-yloxy)ethoxy)carbonyl)-pyrrolidinium 2,2,2-trifluoroacetate], the IC50 was determined as 17.6 ± 0.29 µM in experiment [1] (Homo sapiens, MCF7, 48 h) and 17.6 ± 0.43 µM in experiment [2] (Homo sapiens, HepG2, 48 h).

Regarding `Cc1cc(O)c2c(c1)C(=O)c1cc(OCCOC(=O)[C@@H]3CCCN3)cc(O)c1C2=O` [Compound 3p, (S)-2-((2-(4,5-Dihydroxy-7-methyl-9,10-dioxo-9,10-dihydroanthracen-2-yloxy)ethoxy)carbonyl)-pyrrolidinium 2,2,2-trifluoroacetate], the IC50 came out at 20 ± 1.82 µM in experiment [1] (Homo sapiens, MCF7, 48 h) and 19 ± 0.6 µM in experiment [2] (Homo sapiens, HepG2, 48 h).

`Cc1cc(O)c2c(c1)C(=O)c1cc(OCCOC(=O)[C@H](N)c3ccccc3)cc(O)c1C2=O` [Compound 3q, (R)-2-(2-(4,5-Dihydroxy-7-methyl-9,10-dioxo-9,10-dihydroanthracen-2-yloxy)ethoxy)-2-oxo-1-phenyl-ethanaminium 2,2,2-trifluoroacetate]: the IC50 in experiment [1] (Homo sapiens, MCF7, 48 h) was found to be 28.5 ± 1.74 µM; in experiment [2] (Homo sapiens, HepG2, 48 h), 25.9 ± 0.48 µM.

With `Cc1cc(O)c2c(c1)C(=O)c1cc(OCCOC(=O)[C@@H](N)c3ccccc3)cc(O)c1C2=O` [Compound 3r, (S)-2-(2-(4,5-Dihydroxy-7-methyl-9,10-dioxo-9,10-dihydroanthracen-2-yloxy)ethoxy)-2-oxo-1-phenyl-ethanaminium 2,2,2-trifluoroacetate], the IC50 in experiment [1] (Homo sapiens, MCF7, 48 h) worked out at 25.7 ± 0.61 µM; in experiment [2] (Homo sapiens, HepG2, 48 h), 19.3 ± 1.08 µM.

As to `Cc1cc(O)c2c(c1)C(=O)c1cc(OCCOC(=O)[C@H](N)c3ccc(O)cc3)cc(O)c1C2=O` [Compound 3s, (R)-2-(2-(4,5-Dihydroxy-7-methyl-9,10-dioxo-9,10-dihydroanthracen-2-yloxy)ethoxy)-1-(4-hydroxyphenyl)-2-oxoethanaminium 2,2,2-trifluoroacetate], the IC50 in experiment [1] (Homo sapiens, MCF7, 48 h) turned out to be 25.9 ± 1.09 µM; in experiment [2] (Homo sapiens, HepG2, 48 h), 18.5 ± 0.55 µM.

For the compound `Cc1cc(O)c2c(c1)C(=O)c1cc(OCCOC(=O)[C@@H](N)c3ccc(O)cc3)cc(O)c1C2=O` [Compound 3t, (S)-2-(2-(4,5-Dihydroxy-7-methyl-9,10-dioxo-9,10-dihydroanthracen-2-yloxy)ethoxy)-1-(4-hydroxyphenyl)-2-oxoethanaminium 2,2,2-trifluoroacetate], the IC50 was found to be 39.6 ± 1.97 µM in experiment [1] (Homo sapiens, MCF7, 48 h) and 26.1 ± 1.44 µM in experiment [2] (Homo sapiens, HepG2, 48 h).

Consider `Cc1cc(O)c2c(c1)C(=O)c1cc(OCCOC(=O)[C@H](N)c3ccc(F)cc3)cc(O)c1C2=O` [Compound 3u, (R)-2-(2-(4,5-Dihydroxy-7-methyl-9,10-dioxo-9,10-dihydroanthracen-2-yloxy)ethoxy)-1-(4-fluorophenyl)-2-oxoethanaminium 2,2,2-trifluoroacetate], for which the IC50 in experiment [1] (Homo sapiens, MCF7, 48 h) was determined as 20.8 ± 0.32 µM; in experiment [2] (Homo sapiens, HepG2, 48 h) it was 14.3 ± 1.04 µM.

With `Cc1cc(O)c2c(c1)C(=O)c1cc(OCCOC(=O)[C@@H](N)c3ccc(F)cc3)cc(O)c1C2=O` [Compound 3v, (S)-2-(2-(4,5-Dihydroxy-7-methyl-9,10-dioxo-9,10-dihydroanthracen-2-yloxy)ethoxy)-1-(4-fluorophenyl)-2-oxoethanaminium 2,2,2-trifluoroacetate], the IC50 in experiment [1] (Homo sapiens, MCF7, 48 h) worked out at 22.6 ± 0.9 µM; in experiment [2] (Homo sapiens, HepG2, 48 h), 11.4 ± 0.77 µM.

Regarding `Cc1cc(O)c2c(c1)C(=O)c1cc(OCCOC(=O)[C@H](N)Cc3ccccc3)cc(O)c1C2=O` [Compound 3w, (R)-1-(2-(4,5-Dihydroxy-7-methyl-9,10-dioxo-9,10-dihydroanthracen-2-yloxy)ethoxy)-1-oxo-3-phenyl-propan-2-aminium 2,2,2-trifluoroacetate], the IC50 was found to be 42.4 ± 1.16 µM in experiment [1] (Homo sapiens, MCF7, 48 h) and 31.5 ± 2.72 µM in experiment [2] (Homo sapiens, HepG2, 48 h).
